Target: human activated kallikrein enzyme (plasma kallikrein) (Homo sapiens (Human), UniProt P03952)
Experiment: Inhibition of human activated plasma kallikrein, fluorogenic peptide substrate assay, 500 pM enzyme format
Type: biochemical
Settings: 500 pM activated kallikrein enzyme, 300 uM Pro-Phe-Arg-7-amido-4-methylcoumarin substrate, 30 min preincubation, 10 min at RT; read-out: Primary Dose Response Assay: Average EC50
How it was run: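 Buffer 20 mM Tris pH 7.5, EDTA, NaCl, PEG-400, Triton X-100; 300 uM Pro-Phe-Arg-AMC; enzyme–inhibitor preincubation 30 min RT. Format one: 500 pM kallikrein, 10 min RT reaction; format two: 5 pM kallikrein, 18 h RT reaction. Fluorescence read at 460 nm (380 nm excitation).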

Chain of human activated kallikrein enzyme (plasma kallikrein) (P03952 391-638): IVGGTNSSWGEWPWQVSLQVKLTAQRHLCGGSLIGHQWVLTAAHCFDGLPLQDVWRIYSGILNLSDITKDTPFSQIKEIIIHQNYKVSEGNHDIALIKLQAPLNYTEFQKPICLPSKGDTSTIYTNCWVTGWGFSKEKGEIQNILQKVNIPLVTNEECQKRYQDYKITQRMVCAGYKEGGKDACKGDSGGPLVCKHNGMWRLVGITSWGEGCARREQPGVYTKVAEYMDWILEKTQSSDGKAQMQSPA
Chain of human activated kallikrein enzyme (plasma kallikrein) (P03952 20-390 partner): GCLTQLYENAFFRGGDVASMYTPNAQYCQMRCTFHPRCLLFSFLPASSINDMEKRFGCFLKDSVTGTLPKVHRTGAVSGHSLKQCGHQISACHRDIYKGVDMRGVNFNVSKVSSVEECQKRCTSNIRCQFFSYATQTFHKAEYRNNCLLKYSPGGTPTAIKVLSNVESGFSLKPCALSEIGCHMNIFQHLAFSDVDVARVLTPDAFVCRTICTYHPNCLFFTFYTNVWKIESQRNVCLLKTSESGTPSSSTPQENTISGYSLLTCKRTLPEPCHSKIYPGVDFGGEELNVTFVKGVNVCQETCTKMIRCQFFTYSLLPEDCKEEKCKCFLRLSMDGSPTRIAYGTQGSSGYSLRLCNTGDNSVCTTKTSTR

Compound | EC50 [nM]
O=C(NCc1ncn2ccc(Cl)c(F)c12)c1cn(Cc2cn3cc(C4CC4)cc(-n4cccn4)c3n2)nn1 [Example I-220, N-((7-chloro-8-fluoroimidazo[1,5-a]pyridin-1-yl)methyl)-1-((6-cyclopropyl-8-(1H-pyrazol-1-yl)imidazo[1,2-a]pyridin-2-yl)methyl)-1H-1,2,3-triazole-4-carboxamide] | < 1
COC(=O)C1(Cc2cc(C3CC3)cn3cc(Cn4cc(C(=O)NCc5ncn6ccc(Cl)c(F)c56)nn4)nc23)CCCC1 [Example I-221a, methyl 1-((2-((4-(((7-chloro-8-fluoroimidazo[1,5-a]pyridin-1-yl)methyl)carbamoyl)-1H-1,2,3-triazol-1-yl)methyl)-6-cyclopropylimidazo[1,2-a]pyridin-8-yl)methyl)cyclopentane-1-carboxylate] | < 1
O=C(NCc1ncn2ccc(Cl)c(F)c12)c1cn(Cc2cn3cc(C4CC4)cc(CC4(C(=O)O)CCCC4)c3n2)nn1 [Example I-221b, 1-((2-((4-(((7-chloro-8-fluoroimidazo[1,5-a]pyridin-1-yl)methyl)carbamoyl)-1H-1,2,3-triazol-1-yl)methyl)-6-cyclopropylimidazo[1,2-a]pyridin-8-yl)methyl)cyclopentane-1-carboxylic acid] | < 1
CCOc1c(Cl)ccn2cnc(CNC(=O)c3cn(Cc4cn5cc(C6CC6)cc(CC6(C(=O)O)CCCC6)c5n4)nn3)c12 [Example I-221c, 1-((2-((4-(((7-chloro-8-ethoxyimidazo[1,5-a]pyridin-1-yl)methyl)carbamoyl)-1H-1,2,3-triazol-1-yl)methyl)-6-cyclopropylimidazo[1,2-a]pyridin-8-yl)methyl)cyclopentane-1-carboxylic acid] | 10 to 100
O=C(NCc1ncn2ccc(Cl)c(F)c12)c1cn(Cc2cc3ccc(Cl)cc3[nH]2)nn1 [Example I-222, 1-((6-chloro-1H-indol-2-yl)methyl)-N-((7-chloro-8-fluoroimidazo[1,5-a]pyridin-1-yl)methyl)-1H-1,2,3-triazole-4-carboxamide] | 100 to 2000
CCOC(=O)C(C)(C)Oc1cc(C2CC2)cn2cc(Cn3cc(C(=O)NCc4ncn5ccc(Cl)c(F)c45)nn3)nc12 [Example I-223, ethyl 2-((2-((4-(((7-chloro-8-fluoroimidazo[1,5-a]pyridin-1-yl)methyl)carbamoyl)-1H-1,2,3-triazol-1-yl)methyl)-6-cyclopropylimidazo[1,2-a]pyridin-8-yl)oxy)-2-methylpropanoate] | < 1
COC(=O)C(F)Cc1cc(C2CC2)cn2cc(Cn3cc(C(=O)NCc4ncn5ccc(Cl)c(F)c45)nn3)nc12 (stereo not shown) [Example I-224a, methyl 3-(2-((4-(((7-chloro-8-fluoroimidazo[1,5-a]pyridin-1-yl)methyl)carbamoyl)-1H-1,2,3-triazol-1-yl)methyl)-6-cyclopropylimidazo[1,2-a]pyridin-8-yl)-2-fluoropropanoate] | < 1
O=C(NCc1ncn2ccc(Cl)c(F)c12)c1cn(Cc2cn3cc(C4CC4)cc(-c4cnoc4)c3n2)nn1 [Example I-225, N-((7-chloro-8-fluoroimidazo[1,5-a]pyridin-1-yl)methyl)-1-((6-cyclopropyl-8-(isoxazol-4-yl)imidazo[1,2-a]pyridin-2-yl)methyl)-1H-1,2,3-triazole-4-carboxamide] | < 1
O=C(O)c1cn(-c2cc(C3CC3)cn3cc(Cn4cc(C(=O)NCc5ncn6ccc(Cl)c(F)c56)nn4)nc23)cn1 [Example I-226, 1-(2-((4-((7-chloro-8-fluoroimidazo[1,5-a]pyridin-1-yl)methylcarbamoyl)-1H-1,2,3-triazol-1-yl)methyl)-6-cyclopropylimidazo[1,2-a]pyridin-8-yl)-1H-imidazole-4-carboxylic acid] | < 1
CCOC(=O)CC(c1cn2cc(C3CC3)ccc2n1)n1cc(C(=O)NCc2ncn3ccc(Cl)c(F)c23)nn1 (stereo not shown) [Example I-227a, ethyl 3-(4-(((7-chloro-8-fluoroimidazo[1,5-a]pyridin-1-yl)methyl)carbamoyl)-1H-1,2,3-triazol-1-yl)-3-(6-cyclopropylimidazo[1,2-a]pyridin-2-yl)propanoate] | 10 to 100
O=C(O)CC(c1cn2cc(C3CC3)ccc2n1)n1cc(C(=O)NCc2ncn3ccc(Cl)c(F)c23)nn1 (stereo not shown) [Example I-227b, 3-(4-(((7-chloro-8-fluoroimidazo[1,5-a]pyridin-1-yl)methyl)carbamoyl)-1H-1,2,3-triazol-1-yl)-3-(6-cyclopropylimidazo[1,2-a]pyridin-2-yl)propanoic acid] | 100 to 2000
C#Cc1cc(C2CC2)cn2cc(Cn3cc(C(=O)NCc4ncn5ccc(Cl)c(F)c45)nn3)nc12 [Example I-228, N-((7-chloro-8-fluoroimidazo[1,5-a]pyridin-1-yl)methyl)-1-((6-cyclopropyl-8-ethynylimidazo[1,2-a]pyridin-2-yl)methyl)-1H-1,2,3-triazole-4-carboxamide] | < 1
O=C(NCc1ncn2ccc(Cl)c(F)c12)c1cn(Cc2cc3ccc(C4CC4)cc3s2)nn1 [Example I-229, N-((7-chloro-8-fluoroimidazo[1,5-a]pyridin-1-yl)methyl)-1-((6-cyclopropylbenzo[b]thiophen-2-yl)methyl)-1H-1,2,3-triazole-4-carboxamide] | 10 to 100
O=C(O)c1cnn(-c2cc(C3CC3)cn3cc(Cn4cc(C(=O)NCc5ncn6ccc(Cl)c(F)c56)nn4)nc23)c1 [Example I-230, 1-(2-((4-(((7-chloro-8-fluoroimidazo[1,5-a]pyridin-1-yl)methyl)carbamoyl)-1H-1,2,3-triazol-1-yl)methyl)-6-cyclopropylimidazo[1,2-a]pyridin-8-yl)-1H-pyrazole-4-carboxylic acid] | < 1
O=C(NCc1ncn2ccc(Cl)c(F)c12)c1cn(Cc2cc3cc(C4CC4)cc(C(F)(F)F)n3n2)nn1 [Example I-231, N-((7-chloro-8-fluoroimidazo[1,5-a]pyridin-1-yl)methyl)-1-((5-cyclopropyl-7-(trifluoromethyl)pyrazolo[1,5-a]pyridin-2-yl)methyl)-1H-1,2,3-triazole-4-carboxamide] | < 1
O=C(NCc1ncn2ccc(Cl)c(F)c12)c1cn(Cc2cc3cc(C4CC4)ccc3[nH]2)nn1 [Example I-232, N-((7-chloro-8-fluoroimidazo[1,5-a]pyridin-1-yl)methyl)-1-((5-cyclopropyl-1H-indol-2-yl)methyl)-1H-1,2,3-triazole-4-carboxamide] | 10 to 100
Cn1c(Cn2cc(C(=O)NCc3ncn4ccc(Cl)c(F)c34)nn2)cc2cc(C3CC3)ccc21 [Example I-233, N-((7-chloro-8-fluoroimidazo[1,5-a]pyridin-1-yl)methyl)-1-((5-cyclopropyl-1-methyl-1H-indol-2-yl)methyl)-1H-1,2,3-triazole-4-carboxamide] | 1 to 10
O=C(NCc1ncn2ccc(Cl)c(F)c12)c1cn(Cc2cc3ccc(Cl)cc3s2)nn1 [Example I-234, N-((7-chloro-8-fluoroimidazo[1,5-a]pyridin-1-yl)methyl)-1-((6-chlorobenzo[b]thiophen-2-yl)methyl)-1H-1,2,3-triazole-4-carboxamide] | 10 to 100
O=C(NCc1ncn2ccc(Cl)c(F)c12)c1cn(Cc2cc3ccc(C4CC4)cc3[nH]2)nn1 [Example I-235, N-((7-chloro-8-fluoroimidazo[1,5-a]pyridin-1-yl)methyl)-1-((6-cyclopropyl-1H-indol-2-yl)methyl)-1H-1,2,3-triazole-4-carboxamide] | 100 to 2000
O=C(NCc1ncn2ccc(Cl)c(F)c12)c1cn(Cc2nc3cc(C4CC4)ccc3[nH]2)nn1 [Example I-236, N-((7-chloro-8-fluoroimidazo[1,5-a]pyridin-1-yl)methyl)-1-((5-cyclopropyl-1H-benzo[d]imidazol-2-yl)methyl)-1H-1,2,3-triazole-4-carboxamide] | 10 to 100
CC(C)(C#N)Cc1cc(C2CC2)cn2cc(Cn3cc(C(=O)NCc4ncn5ccc(Cl)c(F)c45)cn3)nc12 [Example I-237, N-((7-chloro-8-fluoroimidazo[1,5-a]pyridin-1-yl)methyl)-1-((8-(2-cyano-2-methylpropyl)-6-cyclopropylimidazo[1,2-a]pyridin-2-yl)methyl)-1H-pyrazole-4-carboxamide] | < 1
CC(C)(Cc1cc(C2CC2)cn2cc(Cn3cc(C(=O)NCc4ncn5ccc(Cl)c(F)c45)cn3)nc12)c1nn[nH]n1 [Example I-238, N-((7-chloro-8-fluoroimidazo[1,5-a]pyridin-1-yl)methyl)-1-((6-cyclopropyl-8-(2-methyl-2-(2H-tetrazol-5-yl)propyl)imidazo[1,2-a]pyridin-2-yl)methyl)-1H-pyrazole-4-carboxamide] | < 1
O=C(NCc1ncn2ccc(Cl)c(F)c12)c1cn(Cc2cn3cc(C4CC4)c(F)cc3n2)nn1 [Example I-239, N-((7-chloro-8-fluoroimidazo[1,5-a]pyridin-1-yl)methyl)-1-((6-cyclopropyl-7-fluoroimidazo[1,2-a]pyridin-2-yl)methyl)-1H-1,2,3-triazole-4-carboxamide] | 1 to 10
O=C(NCc1ncn2ccc(Cl)c(F)c12)c1cn(Cc2nc3ccc(C4CC4)cn3c2F)nn1 [Example I-240, N-((7-chloro-8-fluoroimidazo[1,5-a]pyridin-1-yl)methyl)-1-((6-cyclopropyl-3-fluoroimidazo[1,2-a]pyridin-2-yl)methyl)-1H-1,2,3-triazole-4-carboxamide] | < 1
CCOC(=O)C(C)(C)C(O)c1cc(C2CC2)cn2cc(Cn3cc(C(=O)NCc4ncn5ccc(Cl)c(F)c45)nn3)nc12 (stereo not shown) [Example I-241a, ethyl 3-(2-((4-(((7-chloro-8-fluoroimidazo[1,5-a]pyridin-1-yl)methyl)carbamoyl)-1H-1,2,3-triazol-1-yl)methyl)-6-cyclopropylimidazo[1,2-a]pyridin-8-yl)-3-hydroxy-2,2-dimethylpropanoate] | < 1

Source: patent publication US10730874B2 (Shire Human Genetic Therapies, Inc., priority 2018, dated 2020)
